# Laboratory results taken from patent US7557108B2, “(Indol-4-yl) or (indol-5-yl)-piperazinylmethanones” (Hoffmann-La Roche Inc., priority 2007, dated 2009).
# Biological target: T1, human H3R (Homo sapiens, UniProt Q9Y5N1)
# T1 construct: expressed in transfected cells; host or cells: CHO cells
# Assay: Binding assay with 3H-(R)α-methylhistamine (competition binding, membranes of the human H3R-CHO cell line)
# Settings: competition with 3H(R)α-methylhistamine (1 nM), Ki calculated from IC50 by Cheng-Prusoff
# Protocol: Binding Assay With ^3H—(R)α-methylhistamine
# Saturation binding experiments were performed using HR3-CHO membranes prepared as described in Takahashi, K, Tokita, S., Kotani, H. (2003) J. Pharmacol. Exp. Therapeutics 307, 213-218.
# An appropriate amount of membrane (60 to 80 μg protein/well) was incubated with increasing concentrations of ^3H(R)α-Methylhistamine di-hydrochloride (0.10 to 10 nM). Non specific binding was determined using a 200 fold excess of cold (R)α-Methylhistamine dihydrobromide (500 nM final concentration). The incubation was carried out at room temperature (in deep-well plates shaking for three hours). The final volume in each well was 250 μl. The incubation was followed by rapid filtration on GF/B filters (pre-soaked with 100 μl of 0.5% PEI in Tris 50 mM shaking at 200 rpm for two hours). The filtration was made using a cell-harvester and the filter plates were then washed five times with ice cold washing buffer containing 0.5 M NaCl. After harvesting, the plates were dried at 55° C. for 60 min, then we added scintillation fluid (Microscint 40, 40 microl in each well) and the amount of radioactivity on the filter was determined in Packard top-counter after shaking the plates for two hours at 200 rpm at room temperature.
# Binding Buffer: 50 mM Tris-HCl pH 7.4 and 5 mM MgCl2×6H2O pH 7.4. Washing Buffer: 50 mM Tris-HCl pH 7.4 and 5 mM MgCl2×6H2O and 0.5 M NaCl pH 7.4.
# Indirect measurement of affinity of H3R inverse agonists: twelve increasing concentrations (ranging from 10 μM to 0.3 nM) of the selected compounds were always tested in competition binding experiments using membrane of the human H3R—CHO cell line. An appropriate amount of protein, e.g. approximately 500 cpm binding of RAMH at Kd, were incubated for 1 hour at room temperature in 250 μl final volume in 96-well plates in presence of ^3H(R)α-methylhistamine (1 nM final concentration=Kd). Non-specific binding was determined using a 200 fold excess of cold (R)α-methylhistamine dihydrobromide.
# All compounds were tested at a single concentration in duplicate. […] The concentration at which 50% inhibition of the radioligand ^3H(R)α-methylhistamine is obtained (the IC50) is determined from the linear regression of a plot of the logarithm of the concentration versus percent inhibition measured for the different concentrations. Ki's were calculated from IC50 based on Cheng-Prusoff equation (Cheng, Y, Prusoff, W H (1973) Biochem Pharmacol 22, 3099-3108): Ki=IC50/[1+D/Kd] wherein D is the concentration of the radioligand and Kd is the binding constant for the radioligand binding to the receptor under the conditions used in the competition experiment.
# T1 sequence (Q9Y5N1 whole entry): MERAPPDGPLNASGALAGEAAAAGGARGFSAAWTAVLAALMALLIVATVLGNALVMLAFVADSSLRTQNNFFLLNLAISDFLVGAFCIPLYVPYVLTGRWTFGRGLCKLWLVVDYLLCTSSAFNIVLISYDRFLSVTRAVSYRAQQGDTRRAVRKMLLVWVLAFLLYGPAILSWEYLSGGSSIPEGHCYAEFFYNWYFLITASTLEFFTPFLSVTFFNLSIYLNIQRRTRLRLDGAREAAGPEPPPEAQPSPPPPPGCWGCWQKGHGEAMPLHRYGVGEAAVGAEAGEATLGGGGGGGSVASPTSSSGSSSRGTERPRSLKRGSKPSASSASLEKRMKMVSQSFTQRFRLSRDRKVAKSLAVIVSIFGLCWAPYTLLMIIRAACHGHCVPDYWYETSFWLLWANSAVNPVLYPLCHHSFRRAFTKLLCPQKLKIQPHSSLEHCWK
row,Structure (SMILES),Ki [nM]
1,"CC(C)N1CCN(C(=O)c2ccc3c(ccn3CC3CCCC3)c2)CC1 [Example 1, (1-Cyclopentylmethyl-1H-indol-5-yl)-(4-isopropyl-piperazin-1-yl)-methanone]",84.4
2,"O=C(c1ccc2c(ccn2S(=O)(=O)c2cccs2)c1)N1CCN(C2CCCC2)CC1 [Example 20, (4-cyclopentyl-piperazin-1-yl)-[1-(thiophene-2-sulfonyl)-1H-indol-5-yl]-methanone]",52.2
3,"CC(C(=O)c1ccccc1)n1ccc2c(C(=O)N3CCN(C4CCCC4)CC3)cccc21 (stereo not shown) [Example 34, 2-[4-(4-Cyclopentyl-piperazine-1-carbonyl)-indol-1-yl]-1-phenyl-propan-1-one]",93.5
4,"O=C(c1cccc2c1ccn2Cc1ccc(F)cc1Cl)N1CCN(C2CCCC2)CC1 [Example 41, [1-(2-chloro-4-fluoro-benzyl)-1H-indol-4-yl]-(4-cyclopentyl-piperazin-1-yl)-methanone]",17.4
